Reference: ChEMBL document CHEMBL5550099, “Synthesis and biological activity of 11-Oxygenated and heterocyclic estrone analogs in pancreatic cancer monolayers and 3D spheroids” (Bioorg Med Chem, 2024)
Calls of active or inactive are those of the source. The rule behind the calls is not given here.

Columns and labels:
PANC-1 [1] = assay: Induction of apoptosis in human PANC-1 cells cultured as 3D spheroids assessed as fold increase in caspase-3/7 activity at 0.1 uM incubated for 48 hrs by Glo-max luminescence assay; type: functional
PANC-1 [2] = assay: Induction of apoptosis in human PANC-1 cells cultured as 3D spheroids assessed as decrease in caspase-3/7 activity by measuring reduction in cell number at 1 to 10 uM incubated for 48 hrs by Glo-max luminescence assay; type: functional, cell-based; details: dose 1-10 µM
PANC-1 [3] = assay: Cytotoxicity against human PANC-1 cells co-cultured with human pancreatic stellate cells assessed as inhibition of spheroid growth rate at 10 uM measured every two days by microscopic analysis; type: functional, cell-based
PANC-1 [4] = assay: Cytotoxicity against human PANC-1 cells co-cultured with human pancreatic stellate cells incubated for 48 hrs by MTT assay; type: functional, cell-based
PANC-1 [5] = assay: Cytotoxicity against human PANC-1 cells cultured as 3D spheroids incubated for 48 hrs by Cell-titer glo luminescence assay; type: functional, cell-based; details: PANC-1, 48 h
PANC-1 [6] = assay: Induction of apoptosis in human PANC-1 cells co-cultured with human pancreatic stellate cells assessed as fold increase in caspase-3/7 activity at 0.1 uM incubated for 48 hrs by Glo-max luminescence assay; type: functional
PANC-1 [7] = assay: Cytotoxicity against human PANC-1 cells incubated for 48 hrs by MTT assay; type: functional, cell-based; details: PANC-1, 48 h
PANC-1 [8] = assay: Induction of cell cycle arrest in human PANC-1 cells assessed as accumulation of cells at G1 phase at IC50 measured after 72 hrs by propidium iodide/RNase 141 staining based flow cytometry; type: functional
PANC-1 [9] = assay: Cytotoxicity against human PANC-1 cells cultured as 3D spheroids assessed as inhibition of spheroid growth rate at 10 uM measured every two days by microscopic analysis; type: functional, cell-based
BXPC-3 = assay: Cytotoxicity against human BXPC-3 cells incubated for 48 hrs by MTT assay; type: functional, cell-based; details: BXPC-3, 48 h
PANC-1 [10] = assay: Cytotoxicity against human PANC-1 cells co-cultured with human pancreatic stellate cells incubated for 48 hrs by Cell-titer glo luminescence assay; type: functional, cell-based; details: PANC-1, 48 h
PANC-1 [11] = assay: Induction of apoptosis in human PANC-1 cells co-cultured with human pancreatic stellate cells assessed as decrease in caspase-3/7 activity by measuring reduction in cell number at 1 to 10 uM incubated for 48 hrs by Glo-max luminescence assay; type: functional, cell-based; details: dose 1-10 µM
ASPC1 = assay: Cytotoxicity against human ASPC1 cells incubated for 48 hrs by MTT assay; type: functional, cell-based; details: ASPC1, 48 h
PANC-1 [12] = assay: Cytotoxicity against human PANC-1 cells cultured as 3D spheroids assessed as reduction in spheroid growth rate at 0.1 to 100 uM measured every two days by microscopic analysis; type: functional, cell-based; details: dose 0.1-100 µM
PANC-1 [13] = assay: Induction of apoptosis in human PANC-1 cells cultured as 3D spheroids assessed as increase in caspase-3/7 activity upto 50 uM incubated for 48 hrs by Glo-max luminescence assay relative to control; type: functional; details: up to 50 µM
PANC-1 [14] = assay: Induction of apoptosis in human PANC-1 cells co-cultured with human pancreatic stellate cells assessed as increase in caspase-3/7 activity upto 50 uM incubated for 48 hrs by Glo-max luminescence assay relative to control; type: functional; details: up to 50 µM
PANC-1 [15] = assay: Cytotoxicity against human PANC-1 cells co-cultured with human pancreatic stellate cells assessed as reduction in spheroid growth rate at 0.1 to 100 uM measured every two days by microscopic analysis; type: functional, cell-based; details: dose 0.1-100 µM
PANC-1 [16] = assay: Induction of cell cycle arrest in human PANC-1 cells assessed as accumulation of cells at G2 phase at IC50 measured after 72 hrs by propidium iodide/RNase 141 staining based flow cytometry; type: functional

With `COc1ccc2c(c1)CC[C@@H]1[C@@H]2C(=O)C[C@]2(C)C([C@@](C)(O)C(=O)/C=C/c3ccc(C(F)(F)F)cc3)CC[C@@H]12` (some centres undefined) the “fold change (FC)” value (PANC-1 [1]) was 1.5, the Activity (PANC-1 [2]) was “Active” and the Activity (PANC-1 [3]) was “Active”. The Activity (PANC-1 [4]) was “Active”, the IC50 (PANC-1 [5]) was 21 µM and the “fold change (FC)” value (PANC-1 [6]) was 1.5. The IC50 (PANC-1 [7]) was 5.28 µM, the Activity (PANC-1 [8]) was “Active” and the Activity (PANC-1 [9]) was “Active”. The IC50 (BXPC-3) was 5.7 µM, the IC50 (PANC-1 [10]) was 24.3 µM and the Activity (PANC-1 [11]) was “Active”. The IC50 (ASPC1) was 4.17 µM.

Work on `COc1ccc2c(c1)CC[C@@H]1[C@@H]2CC[C@]2(C)C([C@@](C)(O)C(=O)/C=C/c3cccs3)CC[C@@H]12` (some centres undefined) yielded an IC50 (PANC-1 [7]) of 38.2 µM and an IC50 (ASPC1) greater than 50 µM.

For `COc1ccc2c(c1)CC[C@@H]1[C@@H]2CC[C@]2(C)C([C@@](C)(O)C(=O)/C=C/c3ccc(Cl)o3)CC[C@@H]12` (some centres undefined), the IC50 (PANC-1 [7]) was greater than 50 µM and the IC50 (ASPC1) was 40.2 µM.

`COc1ccc2c(c1)CC[C@@H]1[C@@H]2CC[C@]2(C)C([C@@](C)(O)C(=O)/C=C/c3ccc(Cl)s3)CC[C@@H]12` (some centres undefined) gave an IC50 (PANC-1 [7]) of 33.4 µM and an IC50 (ASPC1) greater than 50 µM.

Compound `C[C@](O)(C(=O)/C=C/c1ccc(Cl)s1)C1CC[C@H]2[C@@H]3CCc4cc(O)ccc4[C@H]3CC[C@]12C` (some centres undefined) has an IC50 (PANC-1 [7]) of 39.8 µM and an IC50 (ASPC1) greater than 50 µM.

`COc1ccc2c(c1)CC[C@@H]1[C@@H]2CC[C@]2(C)C([C@@](C)(O)C(=O)/C=C/c3ccc(C)s3)CC[C@@H]12` (some centres undefined) gave an IC50 (PANC-1 [7]) greater than 50 µM and an IC50 (ASPC1) greater than 50 µM.

`Nc1ccn([C@@H]2O[C@H](CO)[C@@H](O)C2(F)F)c(=O)n1` [GEMCITABINE] was tested, and the Activity (PANC-1 [12]) was “Active”, the Activity (PANC-1 [13]) was 20% and the Activity (PANC-1 [14]) was 20%. The IC50 (PANC-1 [7]) was greater than 50 µM, the IC50 (BXPC-3) was greater than 50 µM and the Activity (PANC-1 [15]) was “Active”. The IC50 (ASPC1) was greater than 50 µM.

`C[C@](O)(C(=O)/C=C/c1cccs1)C1CC[C@H]2[C@@H]3CCc4cc(OS(N)(=O)=O)ccc4[C@H]3CC[C@]12C` (some centres undefined) gave an IC50 (PANC-1 [7]) of 53 µM and an IC50 (ASPC1) of 48.4 µM.

For `COc1ccc2c(c1)CC[C@@H]1[C@@H]2[C@H](O)C[C@]2(C)C([C@@](C)(O)C(=O)/C=C/C(C)(C)O)CC[C@@H]12` (some centres undefined), the “fold change (FC)” value (PANC-1 [1]) was 1.5, the Activity (PANC-1 [2]) was “Active” and the Activity (PANC-1 [4]) was “Active”. The IC50 (PANC-1 [5]) was 37.5 µM, the “fold change (FC)” value (PANC-1 [6]) was 1.5 and the IC50 (PANC-1 [7]) was 11.8 µM. For the same compound, the Activity (PANC-1 [16]) was “Active”, the IC50 (BXPC-3) was 10.1 µM and the IC50 (PANC-1 [10]) was 39.5 µM. For the same compound, the Activity (PANC-1 [11]) was “Active” and the IC50 (ASPC1) was 17.3 µM.

With `C[C@](O)(C(=O)/C=C/c1cccs1)C1CC[C@H]2[C@@H]3CCc4cc(O)ccc4[C@H]3CC[C@]12C` (some centres undefined) the IC50 (PANC-1 [7]) was 41.7 µM and the IC50 (ASPC1) was greater than 50 µM.

With `C[C@](O)(C(=O)/C=C/c1ccc(Cl)s1)C1CC[C@H]2[C@@H]3CCc4cc(OS(N)(=O)=O)ccc4[C@H]3CC[C@]12C` (some centres undefined) the IC50 (PANC-1 [7]) was greater than 50 µM and the IC50 (ASPC1) was greater than 50 µM.

In the case of `COc1ccc2c(c1)CC[C@@H]1[C@@H]2[C@H](O)C[C@]2(C)C([C@@](C)(O)C(=O)/C=C/c3ccc(C(F)(F)F)cc3)CC[C@@H]12` (some centres undefined), the “fold change (FC)” value (PANC-1 [1]) is reported as 1.5, the Activity (PANC-1 [2]) is reported as “Active” and the Activity (PANC-1 [4]) is reported as “Active”. The IC50 (PANC-1 [5]) was 37.5 µM, the “fold change (FC)” value (PANC-1 [6]) was 1.5 and the IC50 (PANC-1 [7]) was 6.52 µM. The Activity (PANC-1 [16]) was “Active”, the IC50 (BXPC-3) was 6.07 µM and the IC50 (PANC-1 [10]) was greater than 50 µM. For the same compound, the Activity (PANC-1 [11]) was “Active” and the IC50 (ASPC1) was 11.5 µM.

With `C[C@](O)(C(=O)/C=C/c1ccc(Cl)o1)C1CC[C@H]2[C@@H]3CCc4cc(O)ccc4[C@H]3CC[C@]12C` (some centres undefined) the IC50 (PANC-1 [7]) was 10.2 µM and the IC50 (ASPC1) was greater than 50 µM.

Work on `Cc1ccc(/C=C/C(=O)[C@](C)(O)C2CC[C@H]3[C@@H]4CCc5cc(OS(N)(=O)=O)ccc5[C@H]4CC[C@]23C)s1` (some centres undefined) yielded an IC50 (PANC-1 [7]) greater than 50 µM and an IC50 (ASPC1) of 38.4 µM.

`Cc1ccc(/C=C/C(=O)[C@](C)(O)C2CC[C@H]3[C@@H]4CCc5cc(O)ccc5[C@H]4CC[C@]23C)s1` (some centres undefined) gave an IC50 (PANC-1 [7]) greater than 50 µM and an IC50 (ASPC1) of 46.5 µM.
